Key:
[1] = Solubility determinations in SIF buffers FaSSIF, FeSSIF, FaSSGF (Example 8, Experiment 5); settings: tabernanthalog sorbate salt, 37° C.
Procedure: The temperature was maintained at 37° C. for 24 h. […] The suspensions were sampled at the relevant time points and centrifuged. The centrifuged pellets, obtained at the time points were analysed by XRPD as a wet pellet and dried, for evidence of form change.
The temperature was maintained at 37° C. for 24 h.
The suspension was sampled at the relevant time points and centrifuged. […] The centrifuged pellets, obtained at the time points were analyzed by XRPD as a wet pellet and dried, for evidence of form change.

[2] = Suspension equilibration of the monofumarate salt at 20° C. and 40° C. (Experiment References 6, 7, 8); format: physicochemical; settings: for Observations (t = 0 @ 40° C.) / Observations (t = 1 d @ 40° C.) / Observations t = 7 d @ 40° C.: suspension equilibration at 40° C.; for Observations (t = 0 @ 20° C.) / Observations (t = 1 d @ 20° C.) / Observations t = 7 d @ 20° C.: suspension equilibration at 20° C.
Procedure: Separate portions of the tabernanthalog monofumarate salt (Sample Reference 1, Pattern #1, ca 50 mg, 1.0 wt.) were charged to separate vessels. The appropriate solvents (e.g. 250 μl, 5.0 vol), were charged to the vessels and the mixtures were stirred for several days at their relevant temperatures e.g. 20 and 40° C. After this time the products were cooled, isolated by centrifugation, analyzed as wet pellet (suffix-1) by XRPD and dried under reduced pressure at 40° C. (suffix-2) and re-analyzed by XRPD and companion analyses for evidence of alternative crystalline forms.
The tabernanthalog monofumarate salt (Sample Reference 1, Pattern #1) was subjected to this technique at ambient temperature (20° C., Table 35) and at elevated temperature (40° C., Table 36), in a diverse range of solvents. The primary aim is to identify a stable, anhydrous monotropic form that is suitable for future development.
The tabernanthalog monofumarate salt (Sample Reference 1, Pattern #1, 1.0 g, 1 wt) was suspended in water (5 ml, 5 vol) at 20° C. for 10 days (the suspension was sub-sampled to monitor the conversion to Pattern #6a by XRPD). The suspension was filtered through a sintered funnel and the filter cake was dried under nitrogen flow for ca. 24 h. Sample 8-A4 (Experiment Reference 8-Sample Reference A4) was collected as a brown solid (560.6 mg, 56% yield uncorr.). Yield was not corrected for impurities, solvents, etc.

C/C=C/C=C/C(=O)O.COc1ccc2c3c([nH]c2c1)CCN(C)CC3 [Sample 5-L10]
Tabernanthalog RRT = 1.00 (trended HPLC data, chemical purity) ([1]; t = 24 h in FaSSGF): 99.33

COc1ccc2c3c([nH]c2c1)CCN(C)CC3.O=C(O)/C=C/C(=O)O [Tabernanthalog•fumarate (CAT8931)]
Observations (t = 0 @ 40° C.) ([2]; 7-A, Acetone): Suspension
Observations (t = 1 d @ 40° C.) ([2]; 7-A, Acetone): Suspension
Observations t = 7 d @ 40° C. ([2]; 7-A, Acetone): Suspension
Observations (t = 0 @ 40° C.) ([2]; 7-B, Acetonitrile): Suspension
Observations (t = 1 d @ 40° C.) ([2]; 7-B, Acetonitrile): Suspension
Observations t = 7 d @ 40° C. ([2]; 7-B, Acetonitrile): Suspension
Observations (t = 0 @ 40° C.) ([2]; 7-C, tert-Butylmethyl ether): Suspension
Observations t = 7 d @ 40° C. ([2]; 7-C, tert-Butylmethyl ether): Suspension
Observations (t = 0 @ 40° C.) ([2]; 7-D, Chlorobenzene): Suspension
Observations (t = 1 d @ 40° C.) ([2]; 7-D, Chlorobenzene): Suspension
Observations t = 7 d @ 40° C. ([2]; 7-D, Chlorobenzene): Suspension
Observations (t = 0 @ 40° C.) ([2]; 7-E, Dichloromethane): Suspension
Observations (t = 1 d @ 40° C.) ([2]; 7-E, Dichloromethane): Suspension
Observations t = 7 d @ 40° C. ([2]; 7-E, Dichloromethane): Suspension
Observations (t = 0 @ 40° C.) ([2]; 7-F, Ethanol): Suspension
Observations (t = 1 d @ 40° C.) ([2]; 7-F, Ethanol): Suspension
Observations t = 7 d @ 40° C. ([2]; 7-F, Ethanol): Suspension
Observations (t = 0 @ 40° C.) ([2]; 7-G, Ethyl acetate): Suspension
Observations (t = 1 d @ 40° C.) ([2]; 7-G, Ethyl acetate): Suspension
Observations t = 7 d @ 40° C. ([2]; 7-G, Ethyl acetate): Suspension
Observations (t = 0 @ 40° C.) ([2]; 7-H, Ethyl formate): Suspension
Observations (t = 1 d @ 40° C.) ([2]; 7-H, Ethyl formate): Suspension
Observations t = 7 d @ 40° C. ([2]; 7-H, Ethyl formate): Suspension
Observations (t = 0 @ 40° C.) ([2]; 7-I, Heptane): Suspension
Observations (t = 1 d @ 40° C.) ([2]; 7-I, Heptane): Suspension
Observations t = 7 d @ 40° C. ([2]; 7-I, Heptane): Suspension
Observations (t = 0 @ 40° C.) ([2]; 7-J, Isopropyl acetate): Suspension
Observations (t = 1 d @ 40° C.) ([2]; 7-J, Isopropyl acetate): Suspension
Observations t = 7 d @ 40° C. ([2]; 7-J, Isopropyl acetate): Suspension
Observations (t = 0 @ 40° C.) ([2]; 7-K, Methanol): Suspension
Observations t = 7 d @ 40° C. ([2]; 7-K, Methanol): Suspension
Observations (t = 0 @ 40° C.) ([2]; 7-L, Methyl acetate): Suspension
Observations (t = 1 d @ 40° C.) ([2]; 7-L, Methyl acetate): Suspension
Observations t = 7 d @ 40° C. ([2]; 7-L, Methyl acetate): Suspension
Observations (t = 0 @ 40° C.) ([2]; 7-M, Methylethyl ketone): Suspension
Observations (t = 1 d @ 40° C.) ([2]; 7-M, Methylethyl ketone): Suspension
Observations t = 7 d @ 40° C. ([2]; 7-M, Methylethyl ketone): Suspension
Observations (t = 0 @ 40° C.) ([2]; 7-N, 2-Methyl THF): Suspension
Observations (t = 1 d @ 40° C.) ([2]; 7-N, 2-Methyl THF): Suspension
Observations t = 7 d @ 40° C. ([2]; 7-N, 2-Methyl THF): Suspension
Observations (t = 0 @ 40° C.) ([2]; 7-O, Nitromethane): Suspension
Observations (t = 1 d @ 40° C.) ([2]; 7-O, Nitromethane): Suspension
Observations t = 7 d @ 40° C. ([2]; 7-O, Nitromethane): Suspension
Observations (t = 0 @ 40° C.) ([2]; 7-P, 2-Propanol): Suspension
Observations (t = 1 d @ 40° C.) ([2]; 7-P, 2-Propanol): Suspension
Observations t = 7 d @ 40° C. ([2]; 7-P, 2-Propanol): Suspension
Observations (t = 0 @ 40° C.) ([2]; 7-Q, Tetrahydrofuran): Suspension
Observations (t = 1 d @ 40° C.) ([2]; 7-Q, Tetrahydrofuran): Sticky Solid
Observations t = 7 d @ 40° C. ([2]; 7-Q, Tetrahydrofuran): Suspension
Observations (t = 0 @ 40° C.) ([2]; 7-R, Toluene): Suspension
Observations (t = 1 d @ 40° C.) ([2]; 7-R, Toluene): Suspension
Observations t = 7 d @ 40° C. ([2]; 7-R, Toluene): Suspension
Observations (t = 0 @ 40° C.) ([2]; 7-S, Water): Suspension
Observations t = 7 d @ 40° C. ([2]; 7-S, Water): Suspension

C/C=C/C=C/C(=O)O.COc1ccc2c3c([nH]c2c1)CCN(C)CC3 [Sample 5-L4]
Tabernanthalog RRT = 1.00 (trended HPLC data, chemical purity) ([1]; t = 3 h in FaSSGF): 99.36

COc1ccc2c3c([nH]c2c1)CCN(C)CC3.O=C(O)/C=C/C(=O)O [Tabernanthalog•Monofumarate (CAT8931)]
Observations (t = 0 @ 20° C.) ([2]; 6-A, Acetone): Suspension
Observations (t = 1 d @ 20° C.) ([2]; 6-A, Acetone): Suspension
Observations t = 7 d @ 20° C. ([2]; 6-A, Acetone): Suspension
Observations (t = 0 @ 20° C.) ([2]; 6-B, Acetonitrile): Suspension
Observations (t = 1 d @ 20° C.) ([2]; 6-B, Acetonitrile): Suspension
Observations t = 7 d @ 20° C. ([2]; 6-B, Acetonitrile): Suspension
Observations (t = 0 @ 20° C.) ([2]; 6-C, tert-Butylmethyl ether): Suspension
Observations (t = 1 d @ 20° C.) ([2]; 6-C, tert-Butylmethyl ether): Suspension
Observations t = 7 d @ 20° C. ([2]; 6-C, tert-Butylmethyl ether): Suspension
Observations (t = 0 @ 20° C.) ([2]; 6-D, Chlorobenzene): Suspension
Observations (t = 1 d @ 20° C.) ([2]; 6-D, Chlorobenzene): Suspension
Observations t = 7 d @ 20° C. ([2]; 6-D, Chlorobenzene): Suspension
Observations (t = 0 @ 20° C.) ([2]; 6-E, Dichloromethane): Suspension
Observations (t = 1 d @ 20° C.) ([2]; 6-E, Dichloromethane): Suspension
Observations t = 7 d @ 20° C. ([2]; 6-E, Dichloromethane): Suspension
Observations (t = 0 @ 20° C.) ([2]; 6-F, Ethanol): Suspension
Observations (t = 1 d @ 20° C.) ([2]; 6-F, Ethanol): Suspension
Observations t = 7 d @ 20° C. ([2]; 6-F, Ethanol): Suspension
Observations (t = 0 @ 20° C.) ([2]; 6-G, Ethyl acetate): Suspension
Observations (t = 1 d @ 20° C.) ([2]; 6-G, Ethyl acetate): Suspension
Observations t = 7 d @ 20° C. ([2]; 6-G, Ethyl acetate): Suspension
Observations (t = 0 @ 20° C.) ([2]; 6-H, Ethyl formate): Suspension
Observations (t = 1 d @ 20° C.) ([2]; 6-H, Ethyl formate): Suspension
Observations t = 7 d @ 20° C. ([2]; 6-H, Ethyl formate): Suspension
Observations (t = 0 @ 20° C.) ([2]; 6-I, Heptane): Suspension
Observations (t = 1 d @ 20° C.) ([2]; 6-I, Heptane): Suspension
Observations t = 7 d @ 20° C. ([2]; 6-I, Heptane): Suspension
Observations (t = 0 @ 20° C.) ([2]; 6-J, Isopropyl acetate): Suspension
Observations (t = 1 d @ 20° C.) ([2]; 6-J, Isopropyl acetate): Suspension
Observations t = 7 d @ 20° C. ([2]; 6-J, Isopropyl acetate): Suspension
Observations (t = 0 @ 20° C.) ([2]; 6-K, Methanol): Suspension
Observations (t = 1 d @ 20° C.) ([2]; 6-K, Methanol): Suspension
Observations t = 7 d @ 20° C. ([2]; 6-K, Methanol): Suspension
Observations (t = 0 @ 20° C.) ([2]; 6-L, Methyl acetate): Suspension
Observations (t = 1 d @ 20° C.) ([2]; 6-L, Methyl acetate): Suspension
Observations t = 7 d @ 20° C. ([2]; 6-L, Methyl acetate): Suspension
Observations (t = 0 @ 20° C.) ([2]; 6-M, Methylethyl ketone): Suspension
Observations (t = 1 d @ 20° C.) ([2]; 6-M, Methylethyl ketone): Suspension
Observations t = 7 d @ 20° C. ([2]; 6-M, Methylethyl ketone): Suspension
Observations (t = 0 @ 20° C.) ([2]; 6-N, 2-Methyl THF): Suspension
Observations (t = 1 d @ 20° C.) ([2]; 6-N, 2-Methyl THF): Suspension
Observations t = 7 d @ 20° C. ([2]; 6-N, 2-Methyl THF): Suspension
Observations (t = 0 @ 20° C.) ([2]; 6-O, Nitromethane): Suspension
Observations (t = 1 d @ 20° C.) ([2]; 6-O, Nitromethane): Suspension
Observations t = 7 d @ 20° C. ([2]; 6-O, Nitromethane): Suspension
Observations (t = 0 @ 20° C.) ([2]; 6-P, 2-Propanol): Suspension
Observations (t = 1 d @ 20° C.) ([2]; 6-P, 2-Propanol): Suspension
Observations t = 7 d @ 20° C. ([2]; 6-P, 2-Propanol): Suspension
Observations (t = 0 @ 20° C.) ([2]; 6-Q, Tetrahydrofuran): Suspension
Observations (t = 1 d @ 20° C.) ([2]; 6-Q, Tetrahydrofuran): Suspension
Observations t = 7 d @ 20° C. ([2]; 6-Q, Tetrahydrofuran): Suspension
Observations (t = 0 @ 20° C.) ([2]; 6-R, Toluene): Suspension
Observations (t = 1 d @ 20° C.) ([2]; 6-R, Toluene): Suspension
Observations t = 7 d @ 20° C. ([2]; 6-R, Toluene): Suspension
Observations (t = 0 @ 20° C.) ([2]; 6-S, Water): Suspension
Observations (t = 1 d @ 20° C.) ([2]; 6-S, Water): Suspension
Observations t = 7 d @ 20° C. ([2]; 6-S, Water): Suspension

Reference: patent US20230257385A1, “SALT AND SOLID FORMS OF TABERNANTHALOG” (priority 2021, published 2023)
